From ChEMBL document CHEMBL4219122, “Synthesis and biological evaluation of histone deacetylase and DNA topoisomerase II-Targeted inhibitors” (Bioorg Med Chem, 2018)

Assays:
RXF 631 = assay: Growth inhibition of human RXF631L cells after 48 hrs by sulforhodamine B-based colorimetric assay; type: functional; conditions: RXF 631, 48 h
DMS-273 = assay: Growth inhibition of human DMS273 cells after 48 hrs by sulforhodamine B-based colorimetric assay; type: functional; conditions: DMS-273, 48 h
MKN-1 = assay: Growth inhibition of human MKN1 cells after 48 hrs by sulforhodamine B-based colorimetric assay; type: functional; conditions: MKN-1, 48 h
MDA-MB-231 = assay: Growth inhibition of human MDA-MB-231 cells after 48 hrs by sulforhodamine B-based colorimetric assay; type: functional; conditions: MDA-MB-231, 48 h
MKN-28 = assay: Growth inhibition of human MKN28 cells after 48 hrs by sulforhodamine B-based colorimetric assay; type: functional; conditions: MKN-28, 48 h
St-4 = assay: Growth inhibition of human St-4 cells after 48 hrs by sulforhodamine B-based colorimetric assay; type: functional; conditions: St-4, 48 h
U-251 = assay: Growth inhibition of human U251 cells after 48 hrs by sulforhodamine B-based colorimetric assay; type: functional; conditions: U-251, 48 h
HCT-116 = assay: Growth inhibition of human HCT116 cells after 48 hrs by sulforhodamine B-based colorimetric assay; type: functional, cell-based; conditions: HCT-116, 48 h
PC-3 = assay: Growth inhibition of human PC3 cells after 48 hrs by sulforhodamine B-based colorimetric assay; type: functional; conditions: PC-3, 48 h
DMS-114 = assay: Growth inhibition of human DMS114 cells after 48 hrs by sulforhodamine B-based colorimetric assay; type: functional; conditions: DMS-114, 48 h
MKN-74 = assay: Growth inhibition of human MKN74 cells after 48 hrs by sulforhodamine B-based colorimetric assay; type: functional; conditions: MKN-74, 48 h
[1] = Growth inhibition of human BSY1 cells after 48 hrs by sulforhodamine B-based colorimetric assay; type: functional; conditions: BSY-1, 48 h
Histone deacetylase 1 = Histone deacetylase 1 (Homo sapiens, UniProt Q13547); assay: Inhibition of recombinant human HDAC1 expressed in HEK293T cells using Ac-KGLGK(Ac)-MCA as substrate after 30 mins in presence of DTT by fluorescence assay
SNB-75 = assay: Growth inhibition of human SNB75 cells after 48 hrs by sulforhodamine B-based colorimetric assay; type: functional; conditions: SNB-75, 48 h
OVCAR-4 = assay: Growth inhibition of human OVCAR4 cells after 48 hrs by sulforhodamine B-based colorimetric assay; type: functional; conditions: OVCAR-4, 48 h
MCF7 = assay: Growth inhibition of human MCF7 cells after 48 hrs by sulforhodamine B-based colorimetric assay; type: functional, cell-based; conditions: MCF7, 48 h
HT-29 = assay: Growth inhibition of human HT-29 cells after 48 hrs by sulforhodamine B-based colorimetric assay; type: functional; conditions: HT-29, 48 h
[2] = target: T1, Protein deacetylase HDAC6 (Mus musculus, UniProt Q9Z2V5); assay: Inhibition of recombinant mouse HDAC6 expressed in HEK293T cells co-expressing mouse HDA2 using Ac-KGLGK(Ac)-MCA as substrate after 30 mins in presence of DTT by fluorescence assay
T1 sequence (Q9Z2V5 whole entry): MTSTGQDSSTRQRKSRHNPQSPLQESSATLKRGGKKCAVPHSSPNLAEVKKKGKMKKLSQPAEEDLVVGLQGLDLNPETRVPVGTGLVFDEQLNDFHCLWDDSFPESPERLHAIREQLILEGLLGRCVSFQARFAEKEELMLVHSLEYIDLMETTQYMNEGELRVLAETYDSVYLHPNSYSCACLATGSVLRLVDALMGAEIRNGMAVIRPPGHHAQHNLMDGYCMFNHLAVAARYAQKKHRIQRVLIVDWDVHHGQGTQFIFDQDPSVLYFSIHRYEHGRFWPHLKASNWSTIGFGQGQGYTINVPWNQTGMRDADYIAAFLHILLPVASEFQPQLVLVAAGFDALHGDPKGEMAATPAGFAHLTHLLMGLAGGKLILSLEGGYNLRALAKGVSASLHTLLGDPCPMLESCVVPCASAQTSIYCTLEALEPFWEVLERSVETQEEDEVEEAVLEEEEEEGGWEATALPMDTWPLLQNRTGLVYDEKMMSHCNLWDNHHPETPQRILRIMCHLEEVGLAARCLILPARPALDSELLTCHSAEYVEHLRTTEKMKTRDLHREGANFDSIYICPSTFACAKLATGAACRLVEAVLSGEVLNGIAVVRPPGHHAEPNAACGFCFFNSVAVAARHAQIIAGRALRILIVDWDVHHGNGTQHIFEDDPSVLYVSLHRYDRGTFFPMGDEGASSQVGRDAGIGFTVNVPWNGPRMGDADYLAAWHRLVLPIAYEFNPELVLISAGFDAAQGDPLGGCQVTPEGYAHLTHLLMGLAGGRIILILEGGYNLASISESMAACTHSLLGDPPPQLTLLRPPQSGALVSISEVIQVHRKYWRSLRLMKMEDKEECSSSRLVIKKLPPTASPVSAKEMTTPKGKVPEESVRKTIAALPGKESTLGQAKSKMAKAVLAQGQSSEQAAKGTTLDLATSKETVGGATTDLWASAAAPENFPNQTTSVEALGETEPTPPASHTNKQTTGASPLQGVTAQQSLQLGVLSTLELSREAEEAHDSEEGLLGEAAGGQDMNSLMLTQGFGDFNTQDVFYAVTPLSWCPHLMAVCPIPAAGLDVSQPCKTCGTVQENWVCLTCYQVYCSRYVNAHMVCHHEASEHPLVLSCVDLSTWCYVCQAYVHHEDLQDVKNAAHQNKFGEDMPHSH

SK-OV-3 = assay: Growth inhibition of human SKOV3 cells after 48 hrs by sulforhodamine B-based colorimetric assay; type: functional; conditions: SK-OV-3, 48 h
[3] = Growth inhibition of human HBC5 cells after 48 hrs by sulforhodamine B-based colorimetric assay; type: functional; conditions: HBC5, 48 h
NCI-H460 = assay: Growth inhibition of human NCI-H460 cells after 48 hrs by sulforhodamine B-based colorimetric assay; type: functional; conditions: NCI-H460, 48 h
NCI-H522 = assay: Growth inhibition of human NCI-H522 cells after 48 hrs by sulforhodamine B-based colorimetric assay; type: functional; conditions: NCI-H522, 48 h
HCC 2998 = assay: Growth inhibition of human HCC2998 cells after 48 hrs by sulforhodamine B-based colorimetric assay; type: functional; conditions: HCC 2998, 48 h
SF-539 = assay: Growth inhibition of human SF539 cells after 48 hrs by sulforhodamine B-based colorimetric assay; type: functional; conditions: SF-539, 48 h
MKN-45 = assay: Growth inhibition of human MKN45 cells after 48 hrs by sulforhodamine B-based colorimetric assay; type: functional; conditions: MKN-45, 48 h
OVCAR-8 = assay: Growth inhibition of human OVCAR8 cells after 48 hrs by sulforhodamine B-based colorimetric assay; type: functional; conditions: OVCAR-8, 48 h
OVCAR-5 = assay: Growth inhibition of human OVCAR5 cells after 48 hrs by sulforhodamine B-based colorimetric assay; type: functional; conditions: OVCAR-5, 48 h
NCI-H226 = assay: Growth inhibition of human NCI-H226 cells after 48 hrs by sulforhodamine B-based colorimetric assay; type: functional; conditions: NCI-H226, 48 h

Histone deacetylase 1, sequence (Q13547 whole entry): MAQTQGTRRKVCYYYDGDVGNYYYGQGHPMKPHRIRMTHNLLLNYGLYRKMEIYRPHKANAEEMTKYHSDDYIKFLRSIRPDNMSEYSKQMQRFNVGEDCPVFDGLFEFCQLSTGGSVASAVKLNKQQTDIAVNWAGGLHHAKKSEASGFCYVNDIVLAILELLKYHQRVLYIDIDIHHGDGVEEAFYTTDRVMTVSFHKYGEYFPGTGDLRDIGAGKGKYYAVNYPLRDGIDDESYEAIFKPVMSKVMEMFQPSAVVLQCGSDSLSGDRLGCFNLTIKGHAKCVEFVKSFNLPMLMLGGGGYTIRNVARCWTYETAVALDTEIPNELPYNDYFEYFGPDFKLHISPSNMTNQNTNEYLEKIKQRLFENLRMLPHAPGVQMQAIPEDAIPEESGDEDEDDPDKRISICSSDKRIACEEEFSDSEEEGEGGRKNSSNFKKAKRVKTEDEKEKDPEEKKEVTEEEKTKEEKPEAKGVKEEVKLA

SMILES	GI50 (RXF 631) [µM]	GI50 (DMS-273) [µM]	GI50 (MKN-1) [µM]	GI50 (MDA-MB-231) [µM]	GI50 (MKN-28) [µM]	GI50 (St-4) [µM]	GI50 (U-251) [µM]	GI50 (HCT-116; read-out: GI50) [µM]	GI50 (HCT-116; read-out: pGI50 (converted)) [µM]	GI50 (PC-3) [µM]	GI50 (DMS-114) [µM]	GI50 (MKN-74) [µM]	GI50 [1] [µM]	IC50 (Histone deacetylase 1) [µM]	GI50 (SNB-75) [µM]	GI50 (OVCAR-4) [µM]	GI50 (MCF7; read-out: GI50) [µM]	GI50 (MCF7; read-out: pGI50 (converted)) [µM]	GI50 (HT-29) [µM]	IC50 [2] [µM]	also measured
Cc1cn([C@H]2C[C@H](C3(c4ccc(NC(=O)CCCCCCC(=O)NO)cc4)SCCCS3)[C@@H](CO[Si](C)(C)C(C)(C)C)O2)c(=O)[nH]c1=O	3.63	3.89	2.95	2.51	3.72	4.07	3.98	3.39	3.39	4.37	3.09	4.47	2.63	0.73	5.37	3.24	3.24	3.24	3.63	0.051	GI50 (SK-OV-3): 4.07 µM; GI50 [3]: 6.46 µM; GI50 (NCI-H460): 3.98 µM; GI50 (NCI-H522): 2.69 µM; GI50 (HCC 2998): 3.98 µM; GI50 (SF-539): 3.39 µM; GI50 (MKN-45): 3.8 µM; GI50 (OVCAR-8): 3.55 µM; GI50 (OVCAR-5): 4.9 µM; GI50 (NCI-H226): 3.89 µM
Cc1cn([C@@H]2C[C@H](C3(c4ccc(NC(=O)CCCCCCC(=O)NO)cc4)SCCCS3)[C@@H](CO[Si](C)(C)C(C)(C)C)O2)c(=O)[nH]c1=O	11.2	3.98	4.47	3.09	4.27	8.71	5.13	4.17	4.17	4.57	3.55	5.75	2.63	1.1	5.5	3.98	3.89	3.89	7.08	0.044	GI50 (SK-OV-3): 12.9 µM; GI50 [3]: 6.31 µM; GI50 (NCI-H460): 4.68 µM; GI50 (NCI-H522): 2.69 µM; GI50 (HCC 2998): 8.32 µM; GI50 (SF-539): 4.57 µM; GI50 (MKN-45): 10 µM; GI50 (OVCAR-8): 4.27 µM; GI50 (OVCAR-5): 6.61 µM; GI50 (NCI-H226): 10.2 µM
